In patent publication US10953051B2, “Methods and means for protecting the skin against pathogenic microorganisms” (Novozymes A/S, priority 2005, dated 2021):
Positions of bridges follow the written chain, without caps; N, C: chain ends. Non-standard residues stand in square brackets, D forms with d. Residues, ends and D or L forms follow the SMILES beside them. *: point of attachment. Ileψ(thiazoline)Cys = CC[C@H](C)[C@H](N)C1=N[C@H](C(=O)*)CS1; dOrn = NCCC[C@@H](N)C(=O)O

Legend:
resident flora = conditions: infants, after treatment with the antibiotic (Brook, 2000); cited from earlier work
[1] = system: Staphylococcus aureus (DSM346); test: in-vitro-hole plate assay, growth inhibition of S. aureus in comparison to bacitracin and erythromycin; format: cell-based; conditions: pre-cutted holes, BHI plates; antibiotics at different concentrations, defined numbers of Lactobacillus cells
Description: The term “microorganisms of the pathogenic transient micro flora” has been described herein above. Preferably, the term relates to Staphylococcus aureus. […] This effect has been compared to commercial antibiotic cream preparations of bacitracin and erythromycin. […] The diameter of the inhibition zones has been measured and the area of inhibition has been calculated thereof. […] Lactic acid bacteria were cultivated (OB-LB-Sa3; DSM 18006) from a −80° C. freezing culture in 1 ml MRS broth in eppendorf tubes. Tubes were closed and cultivated for 2 days at 37° C. 10 μl of this pre culture was transferred to the main culture consisting of 7 ml MRS broth in falcon tubes. The culture was incubated for 2 days. After cultivation cells were harvested by centrifugation (15 min, 4000×g). The cell pellet was washed two times with K/Na-buffer (each 1 ml). Cells were resuspended in 200 μl K/Na buffer. The indicator strain was Staphylococcus aureus (DSM346). 20 ml BHI broth in a shaking glass flask were inoculated with 15 μl of a 24 h pre culture. The indicator strain was cultivated for 24 h at 37° C. An aliquot was diluted to an optical density OD595 nm of 0.025-0.05 in BHI-broth and 800 μl spread on indicator plates (BHI). The agar was stamped using a cork borer. The holes were filled with 5 μl or 10 μl of the pre cultured lactic acid bacteria or corresponding volumes of commercial antibiotic preparations.

Molecule | repression of the resident flora (resident flora) | growth inhibition of S. aureus (inhibition zone, area of inhibition) [1]
CC1(C)S[C@@H]2[C@H](NC(=O)[C@H](N)c3ccc(O)cc3)C(=O)N2[C@H]1C(=O)O [amoxicillin] | about 50% | –
CC[C@H](C)[C@H](N)C1=N[C@H](C(=O)N[C@@H](CC(C)C)C(=O)N[C@H](CCC(=O)O)C(=O)N[C@H](C(=O)N[C@H]2CCCCNC(=O)[C@H](CC(N)=O)NC(=O)[C@@H](CC(=O)O)NC(=O)[C@H](Cc3cnc[nH]3)NC(=O)[C@@H](Cc3ccccc3)NC(=O)[C@H]([C@@H](C)CC)NC(=O)[C@@H](CCCN)NC2=O)[C@@H](C)CC)CS1 [bacitracin] ({Ileψ(thiazoline)Cys}-L[dE]IK[dOrn]I[dF]H[dD]N; lactam 4-C) | – | growth inhibition
CC[C@H]1OC(=O)[C@H](C)[C@@H](O[C@H]2C[C@@](C)(OC)[C@@H](O)[C@H](C)O2)[C@H](C)[C@@H](O[C@@H]2O[C@H](C)C[C@H](N(C)C)[C@H]2O)[C@](C)(O)C[C@@H](C)C(=O)[C@H](C)[C@@H](O)[C@]1(C)O [erythromycin] | – | growth inhibition
Lactobacillus delbrückii ssp. delbrückii OB-LB-Sa3 | – | growth inhibition
